From the supplement of paper PMC12463676, “Small-molecule dissolution of stress granules by redox modulation benefits ALS models” (Nature Chemical Biology, 2025)

Assays:
potassium arsenate = compound: O=[As]([O-])(O)O.[K+] [potassium arsenate]; assay: thermal stability z-score vs DMSO; higher = more thermally stabilized by treatment; details: HeLa; arsenate concentration 1 mM
Experimental: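 Cellular thermal proteome profiling in HeLa cells treated with 1 mM arsenate for 1 h (DMSO pretreatment), heated to ten temperatures (37-66.3 °C). Soluble protein was quantified by TMT mass spectrometry relative to DMSO controls; the thermal stability score was transformed to a z-score; mean of n = 3 experiments.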

lipoamide = compound: NC(=O)CCCCC1CCSS1 [lipoamide]; assay: as above; details: HeLa, lipoamide concentration 100 µM
Experimental: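 Cellular thermal proteome profiling in HeLa cells. Cells were treated with 100 µM lipoamide for 1 h, with or without 1 mM arsenate for a further 1 h, then heated to ten temperatures (37-66.3 °C), and soluble protein was quantified by TMT mass spectrometry relative to 0.1% DMSO controls. The thermal stability score (sum of log2 fold changes minus the abundance score) was transformed to a z-score; mean of n = 3 experiments.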

[1] = arsenate co-treatment: 1 mM arsenate 1 h
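Further: each temperature applied for 3 min, abundance score taken as mean log2 fold change at the two lowest temperatures, z-score obtained by mean subtraction and division by SD.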

Sequence of UniProt Q15738 (Q15738 whole entry): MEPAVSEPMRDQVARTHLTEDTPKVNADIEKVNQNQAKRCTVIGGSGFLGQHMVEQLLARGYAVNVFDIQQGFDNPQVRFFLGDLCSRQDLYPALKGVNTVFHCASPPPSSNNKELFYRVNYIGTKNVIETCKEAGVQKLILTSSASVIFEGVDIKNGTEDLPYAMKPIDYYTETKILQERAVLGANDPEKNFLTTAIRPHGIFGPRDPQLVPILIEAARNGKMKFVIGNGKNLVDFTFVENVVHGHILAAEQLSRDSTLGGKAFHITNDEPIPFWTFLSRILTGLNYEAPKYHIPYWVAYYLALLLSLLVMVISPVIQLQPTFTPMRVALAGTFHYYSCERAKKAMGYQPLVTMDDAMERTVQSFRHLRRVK
Sequence of UniProt Q969Z0 (Q969Z0 whole entry): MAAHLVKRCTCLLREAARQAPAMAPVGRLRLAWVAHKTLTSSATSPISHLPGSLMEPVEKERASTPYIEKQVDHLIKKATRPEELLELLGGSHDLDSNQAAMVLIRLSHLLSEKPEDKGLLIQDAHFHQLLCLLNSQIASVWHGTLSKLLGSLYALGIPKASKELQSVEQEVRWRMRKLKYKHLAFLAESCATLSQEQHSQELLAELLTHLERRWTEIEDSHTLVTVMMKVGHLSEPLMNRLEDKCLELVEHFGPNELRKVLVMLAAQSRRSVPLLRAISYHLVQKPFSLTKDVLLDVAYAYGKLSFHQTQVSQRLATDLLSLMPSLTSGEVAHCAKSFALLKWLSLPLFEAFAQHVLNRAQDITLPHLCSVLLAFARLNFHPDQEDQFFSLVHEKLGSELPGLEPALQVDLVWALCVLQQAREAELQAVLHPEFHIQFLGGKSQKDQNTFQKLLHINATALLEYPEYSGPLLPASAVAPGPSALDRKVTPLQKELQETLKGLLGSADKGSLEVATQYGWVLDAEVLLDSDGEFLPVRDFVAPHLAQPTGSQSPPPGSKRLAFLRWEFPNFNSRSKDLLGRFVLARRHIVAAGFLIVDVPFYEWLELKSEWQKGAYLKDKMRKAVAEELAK
Sequence of UniProt P78356 (P78356 whole entry): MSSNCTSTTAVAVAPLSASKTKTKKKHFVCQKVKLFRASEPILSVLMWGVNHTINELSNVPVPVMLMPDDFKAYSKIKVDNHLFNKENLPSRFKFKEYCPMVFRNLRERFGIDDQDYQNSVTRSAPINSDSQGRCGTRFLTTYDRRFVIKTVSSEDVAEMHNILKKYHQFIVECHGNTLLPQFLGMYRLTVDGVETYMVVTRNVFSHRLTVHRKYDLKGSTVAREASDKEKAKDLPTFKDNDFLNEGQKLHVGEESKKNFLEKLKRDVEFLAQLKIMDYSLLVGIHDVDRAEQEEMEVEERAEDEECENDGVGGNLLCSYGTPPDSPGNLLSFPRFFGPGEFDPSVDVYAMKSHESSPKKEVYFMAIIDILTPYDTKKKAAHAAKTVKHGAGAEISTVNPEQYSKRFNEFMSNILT
Sequence of UniProt O96005 (O96005 whole entry): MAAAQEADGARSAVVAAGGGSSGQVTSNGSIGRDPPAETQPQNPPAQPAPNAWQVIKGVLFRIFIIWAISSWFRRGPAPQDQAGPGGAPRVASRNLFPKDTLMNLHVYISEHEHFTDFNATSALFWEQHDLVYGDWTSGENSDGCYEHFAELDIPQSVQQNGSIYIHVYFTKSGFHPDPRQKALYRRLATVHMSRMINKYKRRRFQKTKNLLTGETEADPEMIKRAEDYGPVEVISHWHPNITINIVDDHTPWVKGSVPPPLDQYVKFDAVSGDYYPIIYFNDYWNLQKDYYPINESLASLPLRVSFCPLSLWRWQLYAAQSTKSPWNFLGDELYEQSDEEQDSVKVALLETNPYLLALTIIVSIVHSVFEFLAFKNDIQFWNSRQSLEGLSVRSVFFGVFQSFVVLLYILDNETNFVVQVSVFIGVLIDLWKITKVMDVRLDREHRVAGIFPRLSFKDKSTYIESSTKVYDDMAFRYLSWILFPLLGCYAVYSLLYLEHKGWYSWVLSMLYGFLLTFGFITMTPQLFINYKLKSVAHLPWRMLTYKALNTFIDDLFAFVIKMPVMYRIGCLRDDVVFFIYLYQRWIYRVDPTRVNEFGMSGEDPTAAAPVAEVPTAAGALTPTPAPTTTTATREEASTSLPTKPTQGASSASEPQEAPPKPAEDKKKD
Sequence of UniProt Q99574 (Q99574 whole entry): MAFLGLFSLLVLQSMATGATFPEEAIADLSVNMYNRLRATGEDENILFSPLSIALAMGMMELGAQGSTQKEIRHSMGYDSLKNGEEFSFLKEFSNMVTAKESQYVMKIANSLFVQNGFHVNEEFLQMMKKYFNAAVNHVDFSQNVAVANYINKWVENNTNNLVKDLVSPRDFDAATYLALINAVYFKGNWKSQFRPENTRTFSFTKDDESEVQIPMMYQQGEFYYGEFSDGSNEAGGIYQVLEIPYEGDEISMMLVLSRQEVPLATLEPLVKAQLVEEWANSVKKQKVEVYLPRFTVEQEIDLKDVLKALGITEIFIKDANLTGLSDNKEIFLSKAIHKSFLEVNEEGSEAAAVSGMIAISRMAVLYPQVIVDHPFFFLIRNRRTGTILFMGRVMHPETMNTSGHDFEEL
Sequence of UniProt Q10589 (Q10589 whole entry): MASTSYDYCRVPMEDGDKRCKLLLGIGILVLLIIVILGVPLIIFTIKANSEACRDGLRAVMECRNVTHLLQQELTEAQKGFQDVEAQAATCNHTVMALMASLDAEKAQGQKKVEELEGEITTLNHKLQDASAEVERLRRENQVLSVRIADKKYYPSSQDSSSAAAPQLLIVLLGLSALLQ
Sequence of UniProt O75182 (O75182 whole entry): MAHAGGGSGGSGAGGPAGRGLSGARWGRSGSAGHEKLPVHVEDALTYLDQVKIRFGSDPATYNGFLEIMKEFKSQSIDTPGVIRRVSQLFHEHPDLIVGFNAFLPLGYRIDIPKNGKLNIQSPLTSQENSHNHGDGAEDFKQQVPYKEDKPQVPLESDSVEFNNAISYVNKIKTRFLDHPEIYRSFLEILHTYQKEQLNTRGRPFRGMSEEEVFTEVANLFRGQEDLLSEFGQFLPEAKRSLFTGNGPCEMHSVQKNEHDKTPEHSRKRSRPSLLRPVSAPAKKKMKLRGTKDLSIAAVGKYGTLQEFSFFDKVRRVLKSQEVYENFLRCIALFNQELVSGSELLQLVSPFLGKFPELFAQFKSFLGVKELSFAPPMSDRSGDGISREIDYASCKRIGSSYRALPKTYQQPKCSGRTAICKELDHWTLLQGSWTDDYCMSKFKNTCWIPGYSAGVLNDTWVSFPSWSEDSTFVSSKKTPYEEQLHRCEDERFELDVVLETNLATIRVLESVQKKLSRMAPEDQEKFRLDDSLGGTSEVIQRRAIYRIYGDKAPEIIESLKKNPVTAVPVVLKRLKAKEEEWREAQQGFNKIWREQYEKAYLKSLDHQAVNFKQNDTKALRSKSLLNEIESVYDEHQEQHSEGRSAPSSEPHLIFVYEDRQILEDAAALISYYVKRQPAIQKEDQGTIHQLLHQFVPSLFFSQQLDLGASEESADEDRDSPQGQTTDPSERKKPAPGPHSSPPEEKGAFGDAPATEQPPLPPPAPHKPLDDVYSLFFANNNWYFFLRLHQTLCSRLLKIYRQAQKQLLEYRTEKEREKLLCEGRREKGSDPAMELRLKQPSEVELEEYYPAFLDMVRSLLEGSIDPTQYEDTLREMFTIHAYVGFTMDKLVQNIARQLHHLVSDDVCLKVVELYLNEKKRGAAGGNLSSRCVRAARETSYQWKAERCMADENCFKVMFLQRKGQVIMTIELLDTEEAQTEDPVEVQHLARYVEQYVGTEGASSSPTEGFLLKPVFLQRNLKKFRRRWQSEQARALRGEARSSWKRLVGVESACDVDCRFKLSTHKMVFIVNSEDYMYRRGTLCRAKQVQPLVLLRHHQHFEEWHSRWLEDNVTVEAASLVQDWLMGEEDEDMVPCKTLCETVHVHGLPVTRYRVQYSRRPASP
Sequence of UniProt Q99755 (Q99755 whole entry): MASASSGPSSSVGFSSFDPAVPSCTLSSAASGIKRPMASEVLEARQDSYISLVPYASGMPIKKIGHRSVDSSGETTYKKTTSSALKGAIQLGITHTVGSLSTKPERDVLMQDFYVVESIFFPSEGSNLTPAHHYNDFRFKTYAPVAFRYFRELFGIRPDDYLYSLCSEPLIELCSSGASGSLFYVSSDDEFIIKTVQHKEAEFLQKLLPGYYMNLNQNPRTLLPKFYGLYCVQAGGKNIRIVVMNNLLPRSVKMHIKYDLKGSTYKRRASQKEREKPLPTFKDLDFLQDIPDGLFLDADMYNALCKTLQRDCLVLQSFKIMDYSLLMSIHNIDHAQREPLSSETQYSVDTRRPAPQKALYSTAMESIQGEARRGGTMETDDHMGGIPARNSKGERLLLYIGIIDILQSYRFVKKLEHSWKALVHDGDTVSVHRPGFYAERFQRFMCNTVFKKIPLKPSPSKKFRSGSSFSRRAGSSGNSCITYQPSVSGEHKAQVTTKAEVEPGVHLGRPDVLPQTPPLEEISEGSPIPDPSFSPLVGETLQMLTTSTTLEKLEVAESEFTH
Sequence of UniProt Q13510 (Q13510 whole entry): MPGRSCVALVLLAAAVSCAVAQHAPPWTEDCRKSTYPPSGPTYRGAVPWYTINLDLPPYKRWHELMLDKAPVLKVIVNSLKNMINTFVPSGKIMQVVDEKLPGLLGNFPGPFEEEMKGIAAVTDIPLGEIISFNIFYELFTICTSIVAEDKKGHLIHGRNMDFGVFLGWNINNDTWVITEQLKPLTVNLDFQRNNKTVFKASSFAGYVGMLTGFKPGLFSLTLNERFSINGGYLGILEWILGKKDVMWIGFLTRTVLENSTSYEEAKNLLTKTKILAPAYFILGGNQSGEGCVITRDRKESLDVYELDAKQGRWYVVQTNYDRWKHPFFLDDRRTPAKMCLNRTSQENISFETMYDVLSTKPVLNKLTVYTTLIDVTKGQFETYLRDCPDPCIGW
Sequence of UniProt P0C7P0 (P0C7P0 whole entry): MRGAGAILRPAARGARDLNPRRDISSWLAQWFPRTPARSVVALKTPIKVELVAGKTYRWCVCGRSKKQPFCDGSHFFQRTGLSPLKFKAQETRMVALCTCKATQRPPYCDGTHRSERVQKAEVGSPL

Target	thermal stability z-score (potassium arsenate)	thermal stability z-score (lipoamide; [1])	thermal stability z-score (lipoamide; arsenate co-treatment: none)
ATN1 (UniProt P54259)	0.759	0.566	0.784
CEP55 (UniProt Q53EZ4)	-0.0317	-0.129	-0.0226
COQ3 (UniProt Q9NZJ6)	1.9	0.083	0.759
ANKRD27 (UniProt Q96NW4)	-0.276	-0.025	-0.0854
BID (UniProt P55957)	0.587	0.895	1.36
PKD2 (UniProt Q13563)	0.16	0.277	0.13
RCN1 (UniProt Q15293)	0.52	-1.02	-0.814
OARD1 (UniProt Q9Y530)	-0.793	0.407	0.708
SPATS2 (UniProt Q86XZ4)	-0.00843	-0.0725	0.644
CISD3 (UniProt P0C7P0)	0.0591	1.09	1.49
APH1A (UniProt Q96BI3)	-0.696	0.28	-0.0861
FIGNL1 (UniProt Q6PIW4)	-1	-0.113	-0.0699
AP5Z1 (UniProt O43299)	0.502	0.0372	0.822
PTPN6 (UniProt P29350)	-0.0221	-0.0229	0.0958
STX4 (UniProt Q12846)	-0.199	0.741	0.546
KIRREL (UniProt Q96J84)	0.892	0.0439	-0.449
PPWD1 (UniProt Q96BP3)	-0.656	-0.218	-0.513
GDAP1 (UniProt Q8TB36)	-0.354	-0.141	-0.313
ELMOD2 (UniProt Q8IZ81)	0.198	-0.403	-0.238
PIP5K1A (UniProt Q99755)	0.951	-0.948	-0.813
TMOD1 (UniProt P28289)	0.225	0.167	0.298
VDAC3 (UniProt Q9Y277)	0.848	0.0571	0.18
DNAJB4 (UniProt Q9UDY4)	-0.708	-0.368	-0.146
RSRC2 (UniProt Q7L4I2)	1.03	0.668	0.164

Target	thermal stability z-score (potassium arsenate)	thermal stability z-score (lipoamide; [1])	thermal stability z-score (lipoamide; arsenate co-treatment: none)
CCDC85B (UniProt Q15834)	0.125	0.574	0.223
XPO7 (UniProt Q9UIA9)	0.621	-0.0212	-0.0682
WDR11 (UniProt Q9BZH6)	-0.267	-0.207	-0.147
NSDHL (UniProt Q15738)	-0.401	0.566	0.0586
APIP (UniProt Q96GX9)	-0.0221	0.597	0.408
UNC119B (UniProt A6NIH7)	-0.0898	1.07	0.468
CDC42EP4 (UniProt Q9H3Q1)	0.499	-0.323	-0.652
FAM49B (UniProt Q9NUQ9)	0.0541	0.4	0.0941
PAPSS1 (UniProt O43252)	0.0908	-0.0513	-0.0832
GHDC (UniProt Q8N2G8)	0.229	-0.848	0.229
SERPINI1 (UniProt Q99574)	0.709	-0.495	0.0132
AARSD1 (UniProt Q9BTE6)	0.428	0.0117	0.0955
PDLIM7 (UniProt Q9NR12)	-1.12	-0.856	-0.95
BST2 (UniProt Q10589)	0.172	0.265	0.606
TBRG4 (UniProt Q969Z0)	0.462	-0.625	-0.116
SIN3B (UniProt O75182)	-0.327	0.0836	0.279
ASAH1 (UniProt Q13510)	0.065	-0.162	-0.738
RPRD2 (UniProt Q5VT52)	0.719	1.99	1.64
CLPTM1 (UniProt O96005)	0.0364	-3.11	-2.81
SASS6 (UniProt Q6UVJ0)	-0.481	-0.579	-0.207
GORAB (UniProt Q5T7V8)	0.527	0.521	0.173
PLEKHA1 (UniProt Q9HB21)	-0.185	-0.0949	-0.105
NIPBL (UniProt Q6KC79)	-0.167	-0.0211	-0.00358
TNFRSF1A (UniProt P19438)	0.164	-0.0438	-0.00708

Target	thermal stability z-score (potassium arsenate)	thermal stability z-score (lipoamide; [1])	thermal stability z-score (lipoamide; arsenate co-treatment: none)
PMS1 (UniProt P54277)	-0.486	-0.133	-0.0146
NCBP2 (UniProt P52298)	-0.0118	0.782	0.577
GPS1 (UniProt Q13098)	0.904	0.881	0.892
ATP9A (UniProt O75110)	-0.569	0.482	0.278
FKBP1A (UniProt P62942)	-1.96	0.374	0.262
NAE1 (UniProt Q13564)	-0.18	-0.406	-0.333
GTF3C6 (UniProt Q969F1)	-0.175	0.05	-0.0491
ASPSCR1 (UniProt Q9BZE9)	-0.304	0.207	-0.218
NENF (UniProt Q9UMX5)	-0.0969	0.318	-0.406
C9ORF78 (UniProt Q9NZ63)	0.106	0.058	0.278
IL18 (UniProt Q14116)	-0.226	0.282	-0.0498
ZC3HAV1 (UniProt Q7Z2W4)	0.156	-0.627	0.183
PIP4K2B (UniProt P78356)	0.0439	0.0141	0.0907
GINS1 (UniProt Q14691)	-0.404	-0.512	-0.399
ESD (UniProt P10768)	0.445	-0.53	-0.395
IMMT (UniProt Q16891)	1.31	0.667	0.854
DCTN5 (UniProt Q9BTE1)	-0.329	-0.414	-0.0773
FNDC3B (UniProt Q53EP0)	3.13	-0.593	0.623
TXNDC5 (UniProt Q8NBS9)	0.0646	-2.16	-1.86
ABCF1 (UniProt Q8NE71)	1.14	-0.384	-0.353
WDR62 (UniProt O43379)	-0.0901	-0.259	-0.153
SLC22A18 (UniProt Q96BI1)	-0.0251	0.00763	-0.34
PDXP (UniProt Q96GD0)	-0.658	0.0465	0.133
